Results: ChEMBL document CHEMBL1201862, “PubChem BioAssay data set” (2004)
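All cell lines were grown in 96-well plates and treated with compound for 48 hours. The concentration for 50% growth inhibition is given as GI50.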 Active and inactive are the calls of the source. Rule as the data show it: active = GI50 up to about 1.1 µM and inactive = higher.

Assays:
Assay in all cases: inhibition of tumour cell growth, NCI panel, 48 h
SK-OV-3 = tested on: SK-OV-3
LOX IMVI = tested on: LOX IMVI
HOP-62 = tested on: HOP-62
HT-29 = tested on: HT-29
SR = tested on: SR
RXF 393 = tested on: RXF 393
KM12 = tested on: KM12
MDA-MB-231 = tested on: MDA-MB-231
NCI-H226 = tested on: NCI-H226
SK-MEL-2 = tested on: SK-MEL-2
UO-31 = tested on: UO-31
SF-539 = tested on: SF-539
A498 = tested on: A498
T47D = tested on: T47D
SN12C = tested on: SN12C
OVCAR-5 = tested on: OVCAR-5
MOLT-4 = tested on: MOLT-4
HOP-92 = tested on: HOP-92
EKVX = tested on: EKVX
K562 = tested on: K562

Measured: GI50

Oc1ccc(Cl)cc1Cc1cc(Cl)cc(Cc2cc(Cl)ccc2O)c1O
inactive: SK-OV-3 2.43 µM | LOX IMVI 2.9 µM | HOP-62 2.5 µM | HT-29 3 µM | SR 2.82 µM | RXF 393 1.84 µM | KM12 2.64 µM | MDA-MB-231 2.53 µM | NCI-H226 2.74 µM | SK-MEL-2 2.61 µM | UO-31 3.01 µM | SF-539 1.64 µM | A498 1.46 µM | T47D 2.07 µM | SN12C 2.4 µM | OVCAR-5 3.17 µM | MOLT-4 2.34 µM | HOP-92 1.26 µM | EKVX 2.33 µM | K562 1.63 µM

O=C(O)c1ccc(Oc2nc3ccccc3s2)cc1
inactive: SK-OV-3 > 100 µM | LOX IMVI > 100 µM | HOP-62 > 100 µM | HT-29 > 100 µM | SR 85.7 µM | RXF 393 > 100 µM | KM12 > 100 µM | MDA-MB-231 > 100 µM | NCI-H226 > 100 µM | SK-MEL-2 > 100 µM | UO-31 > 100 µM | SF-539 > 100 µM | A498 > 100 µM | T47D > 100 µM | SN12C > 100 µM | OVCAR-5 > 100 µM | MOLT-4 > 100 µM | HOP-92 87.9 µM | EKVX > 100 µM | K562 > 100 µM

CCN1C(NN)=NS(=O)(=O)c2ccccc21
inactive: SK-OV-3 > 100 µM | LOX IMVI > 100 µM | HOP-62 > 100 µM | HT-29 > 100 µM | SR > 100 µM | RXF 393 > 100 µM | KM12 > 100 µM | MDA-MB-231 > 100 µM | NCI-H226 > 100 µM | SK-MEL-2 > 100 µM | UO-31 > 100 µM | SF-539 > 100 µM | A498 > 100 µM | T47D > 100 µM | SN12C > 100 µM | OVCAR-5 > 100 µM | MOLT-4 > 100 µM | HOP-92 > 100 µM | EKVX > 100 µM | K562 > 100 µM

C[C@@H]1C[C@@H](O)[C@@]2(O)C13CC(=O)OC(C3)[C@@H](C)[C@@]2(C)CO (stereo not given in full)
inactive: SK-OV-3 > 100 µM | LOX IMVI > 100 µM | HOP-62 > 100 µM | HT-29 > 100 µM | SR > 100 µM | RXF 393 > 100 µM | KM12 > 100 µM | MDA-MB-231 > 100 µM | NCI-H226 > 100 µM | SK-MEL-2 > 100 µM | UO-31 > 100 µM | SF-539 > 100 µM | A498 > 100 µM | T47D > 100 µM | SN12C > 100 µM | OVCAR-5 > 100 µM | MOLT-4 > 100 µM | HOP-92 > 100 µM | EKVX > 100 µM | K562 > 100 µM

CCOC(=O)Oc1cc2c(ccn2C)c2c1c1ccccc1n2C(=O)OCC
inactive: SK-OV-3 > 100 µM | LOX IMVI > 100 µM | HOP-62 > 100 µM | HT-29 > 100 µM | SR > 100 µM | RXF 393 > 100 µM | KM12 > 100 µM | MDA-MB-231 > 100 µM | NCI-H226 > 100 µM | SK-MEL-2 > 100 µM | UO-31 > 100 µM | SF-539 > 100 µM | A498 > 100 µM | T47D > 100 µM | SN12C > 100 µM | OVCAR-5 > 100 µM | MOLT-4 > 100 µM | HOP-92 > 100 µM | EKVX > 100 µM | K562 > 100 µM

CC1=C(C(=O)OC2CC3CCC2(C)C3(C)C)C2Nc3ccccc3N(C)C2O1 (stereo not given)
inactive: SK-OV-3 4.43 µM | LOX IMVI 1.71 µM | HOP-62 3.84 µM | HT-29 1.56 µM | SR 1.19 µM | RXF 393 2.63 µM | KM12 2.43 µM | MDA-MB-231 3.01 µM | NCI-H226 4.3 µM | SK-MEL-2 2.35 µM | UO-31 2.5 µM | SF-539 3.04 µM | A498 6.12 µM | T47D 3.04 µM | SN12C 1.78 µM | OVCAR-5 7.1 µM | MOLT-4 1.84 µM | HOP-92 3.22 µM | EKVX 5.12 µM | K562 3.66 µM

O=C(NC1CCN(Cc2ccccc2)CC1)c1ccccc1I
inactive: SK-OV-3 22.4 µM | LOX IMVI 17.5 µM | HOP-62 19.8 µM | HT-29 16.6 µM | SR 25.6 µM | RXF 393 43.9 µM | KM12 17.3 µM | MDA-MB-231 24.2 µM | NCI-H226 25.8 µM | SK-MEL-2 23.4 µM | UO-31 15.8 µM | SF-539 23.2 µM | A498 57 µM | T47D 22.2 µM | SN12C 62.7 µM | OVCAR-5 22.5 µM | MOLT-4 17 µM | HOP-92 28.7 µM | EKVX 43.3 µM | K562 23.3 µM
